Where “and” joins values, the source holds several entries; their conditions need not be identical. Equal values may be shown once. Where a name gives a salt, the structure may show the parent alone.
Experiments:
[1] = Oral gavage pharmacokinetics in rats, plasma oxycodone by LC-MS/MS; conditions: 0.89 mg/kg oral, rat; for Plasma Concentration (oxycodone), Mean: mean of the N quantifiable subjects
[2] = Oral gavage pharmacokinetics in rats, plasma oxymorphone by LC-MS/MS; conditions: for concentration at 0.25 h / concentration at 0.5 h / concentration at 1 h / concentration at 2 h / concentration at 3 h / concentration at 4 h / concentration at 6 h: oral, Plasma oxymorphone
[3] = Dissolution of test article in dosing formulation; conditions: Ex No. B1a, 6.72 mg/kg group, 0.5% methylcellulose vehicle, equivalent to 2 mg/mL oxymorphone HCl
[4] = 1.77 mg/kg Oxymorphone HCl oral, rat, hydrochloride

COc1ccc2c3c1O[C@H]1C(OC(=O)C[C@H](OC(=O)C[C@H](O)C(=O)O)C(=O)O)=CC[C@@]4(O)[C@@H](C2)N(C)CC[C@]314 [Oxycodone Dimalate, (S)-4-((S)-1-Carboxy-3-(((4R,4aS,7aR,12bS)-4a-hydroxy-9-methoxy-3-methyl-2,3,4,4a,5,7a-hexahydro-1H-4,12-methanobenzofuro[3,2-e]isoquinolin-7-yl)oxy)-3-oxopropoxy)-2-hydroxy-4-oxobutanoic acid trifluoroacetic acid salt]
Plasma Concentration (oxycodone) by Subject ([1]; 0.25 h): BLQ
Plasma Concentration (oxycodone), Mean ([1]; 0.25 h): BLQ
Plasma Concentration (oxycodone) by Subject ([1]; 0.5 h): BLQ
Plasma Concentration (oxycodone), Mean ([1]; 0.5 h): BLQ
Plasma Concentration (oxycodone) by Subject ([1]; 2 h): BLQ
Plasma Concentration (oxycodone), Mean ([1]; 2 h): BLQ
Plasma Concentration (oxycodone) by Subject ([1]; 3 h): BLQ
Plasma Concentration (oxycodone), Mean ([1]; 3 h): BLQ
Plasma Concentration (oxycodone) by Subject ([1]; 4 h): BLQ
Plasma Concentration (oxycodone), Mean ([1]; 4 h): BLQ
Plasma Concentration (oxycodone) by Subject ([1]; 6 h): BLQ
Plasma Concentration (oxycodone), Mean ([1]; 6 h): BLQ

COc1ccc2c3c1O[C@H]1C(=O)CC[C@@]4(O)[C@@H](C2)N(C)CC[C@]314.Cl [Oxycodone HCl, oxycodone HCl]
Plasma Concentration (oxycodone) by Subject ([1]; 2 h): BLQ
Plasma Concentration (oxycodone), Mean ([1]; 2 h): BLQ
Plasma Concentration (oxycodone) by Subject ([1]; 3 h): BLQ
Plasma Concentration (oxycodone), Mean ([1]; 3 h): BLQ
Plasma Concentration (oxycodone) by Subject ([1]; 4 h): BLQ
Plasma Concentration (oxycodone), Mean ([1]; 4 h): BLQ
Plasma Concentration (oxycodone) by Subject ([1]; 6 h): BLQ
Plasma Concentration (oxycodone), Mean ([1]; 6 h): BLQ

COc1ccc2c3c1O[C@H]1C(OC(=O)[C@H](C)O)=CC[C@@]4(O)[C@@H](C2)N(C)CC[C@]314 [Oxycodone Lactate, (S)-(4R,4aS,7aR,12bS)-4a-Hydroxy-9-methoxy-3-methyl-2,3,4,4a,5,7a-hexahydro-1H-4,12-methanobenzofuro[3,2-e]isoquinolin-7-yl 2-hydroxypropanoate trifluoroacetic acid salt]
Plasma Concentration (oxycodone) by Subject ([1]; 6 h): BLQ
Plasma Concentration (oxycodone), Mean ([1]; 6 h): BLQ

COc1ccc2c3c1O[C@H]1C(OC(=O)C[C@H](O)C(=O)O)=CC[C@@]4(O)[C@@H](C2)N(C)CC[C@]314.Cl [Oxycodone Malate, (S)-2-Hydroxy-4-(((4R,4aS,7aR,12bS)-4a-hydroxy-9-methoxy-3-methyl-2,3,4,4a,5,7a-hexahydro-1H-4,12-methanobenzofuro[3,2-e]isoquinolin-7-yl)oxy)-4-oxobutanoic acid hydrochloride]
Plasma Concentration (oxycodone) by Subject ([1]; 6 h): BLQ
Plasma Concentration (oxycodone), Mean ([1]; 6 h): BLQ

COc1ccc2c3c1O[C@H]1C(OC(=O)[C@H](O)c4ccccc4)=CC[C@@]4(O)[C@@H](C2)N(C)CC[C@]314 [Oxycodone Mandelate, (R)-(4R,4aS,7aR,12bS)-4a-Hydroxy-9-methoxy-3-methyl-2,3,4,4a,5,7a-hexahydro-1H-4,12-methanobenzofuro[3,2-e]isoquinolin-7-yl 2-hydroxy-2-phenylacetate trifluoroacetic acid salt]
Plasma Concentration (oxycodone) by Subject ([1]; 4 h): BLQ
Plasma Concentration (oxycodone), Mean ([1]; 4 h): BLQ
Plasma Concentration (oxycodone) by Subject ([1]; 6 h): BLQ
Plasma Concentration (oxycodone), Mean ([1]; 6 h): BLQ

CCCCCCCC/C=C\CCCCCCCC(=O)OC1=CC[C@@]2(O)[C@H]3Cc4ccc(OC)c5c4[C@@]2(CCN3C)[C@H]1O5.Cl [Oxycodone Oleate, (4R,4aS,7aR,12bS)-4a-Hydroxy-9-methoxy-3-methyl-2,3,4,4a,5,7a-hexahydro-1H-4,12-methanobenzofuro[3,2-e]isoquinolin-7-yl oleate hydrochloride]
Plasma Concentration (oxycodone) by Subject ([1]; 4 h): BLQ
Plasma Concentration (oxycodone), Mean ([1]; 4 h): BLQ

CN1CC[C@]23c4c5ccc(O)c4O[C@H]2C(=O)CC[C@@]3(O)[C@H]1C5 [Oxymorphone HCl, oxymorphone hydrochloride]
Plasma oxymorphone, individual rats ([2]; 1.77 mg/kg Oxymorphone HCl oral, rat, 0.25 h, hydrochloride): 0.379 ng/mL and 0.862 ng/mL and 1.144 ng/mL
Plasma oxymorphone, individual rats ([2]; 1.77 mg/kg Oxymorphone HCl oral, rat, 0.5 h, hydrochloride): 0.343 ng/mL and 0.925 ng/mL and 0.799 ng/mL
Plasma oxymorphone, individual rats ([2]; 1.77 mg/kg Oxymorphone HCl oral, rat, 1 h, hydrochloride): 0.545 ng/mL and 1.557 ng/mL and 1.110 ng/mL
Plasma oxymorphone, individual rats ([2]; 1.77 mg/kg Oxymorphone HCl oral, rat, 2 h, hydrochloride): 0.728 ng/mL and 1.826 ng/mL and 0.621 ng/mL
Plasma oxymorphone, individual rats ([2]; 1.77 mg/kg Oxymorphone HCl oral, rat, 3 h, hydrochloride): 0.676 ng/mL and BQL (BQL: <0.200 ng/mL)
Plasma oxymorphone, individual rats ([2]; 1.77 mg/kg Oxymorphone HCl oral, rat, 4 h, hydrochloride): 0.429 ng/mL and BQL (BQL: <0.200 ng/mL)
Plasma oxymorphone, individual rats ([2]; 1.77 mg/kg Oxymorphone HCl oral, rat, 6 h, hydrochloride): BQL (BQL: <0.200 ng/mL)
Cmax of plasma oxymorphone, individual rats [2, 4]: 0.728 ng/mL and 1.826 ng/mL and 1.144 ng/mL
Tmax of plasma oxymorphone, individual rats [2, 4]: 2.00 h (2×) and 0.25 h
Plasma oxymorphone, individual rats ([2]; 3.54 mg/kg Oxymorphone HCl oral, rat, 0.25 h, hydrochloride): 4.958 ng/mL and 3.246 ng/mL and 1.767 ng/mL
Plasma oxymorphone, individual rats ([2]; 3.54 mg/kg Oxymorphone HCl oral, rat, 0.5 h, hydrochloride): 4.716 ng/mL and 2.469 ng/mL and 2.095 ng/mL
Plasma oxymorphone, individual rats ([2]; 3.54 mg/kg Oxymorphone HCl oral, rat, 1 h, hydrochloride): 3.423 ng/mL and 2.146 ng/mL and 0.913 ng/mL
Plasma oxymorphone, individual rats ([2]; 3.54 mg/kg Oxymorphone HCl oral, rat, 2 h, hydrochloride): 2.434 ng/mL and 1.639 ng/mL
Plasma oxymorphone, individual rats ([2]; 3.54 mg/kg Oxymorphone HCl oral, rat, 3 h, hydrochloride): 0.577 ng/mL and 1.635 ng/mL and 1.276 ng/mL
Plasma oxymorphone, individual rats ([2]; 3.54 mg/kg Oxymorphone HCl oral, rat, 4 h, hydrochloride): 0.545 ng/mL and 0.618 ng/mL
Plasma oxymorphone, individual rats ([2]; 3.54 mg/kg Oxymorphone HCl oral, rat, 6 h, hydrochloride): 0.796 ng/mL and 0.774 ng/mL
concentration at 0.25 h ([2]; male, Sprague Dawley, rat, plasma, 1.77 mg/kg, Mean, 1.77 mg/kg Oxymorphone HCl oral, 0.25 h): 0.795 ng/mL
concentration at 0.5 h ([2]; male, Sprague Dawley, rat, plasma, 1.77 mg/kg, Mean, 1.77 mg/kg Oxymorphone HCl oral, 0.5 h): 0.689 ng/mL
concentration at 1 h ([2]; male, Sprague Dawley, rat, plasma, 1.77 mg/kg, Mean, 1.77 mg/kg Oxymorphone HCl oral, 1 h): 1.07 ng/mL
concentration at 2 h ([2]; male, Sprague Dawley, rat, plasma, 1.77 mg/kg, Mean, 1.77 mg/kg Oxymorphone HCl oral, 2 h): 1.06 ng/mL
concentration at 3 h ([2]; male, Sprague Dawley, rat, plasma, 1.77 mg/kg, Mean, 1.77 mg/kg Oxymorphone HCl oral, 3 h): 0.378 ng/mL
concentration at 4 h ([2]; male, Sprague Dawley, rat, plasma, 1.77 mg/kg, Mean, 1.77 mg/kg Oxymorphone HCl oral, 4 h): 0.312 ng/mL
concentration at 6 h ([2]; male, Sprague Dawley, rat, plasma, 1.77 mg/kg, Mean, 1.77 mg/kg Oxymorphone HCl oral, 6 h): 0.6 ng/mL
concentration at 3 h ([2]; male, Sprague Dawley, rat, plasma, 1.77 mg/kg, individual rats, 1.77 mg/kg Oxymorphone HCl oral, 3 h): 0.457 ng/mL
concentration at 4 h ([2]; male, Sprague Dawley, rat, plasma, 1.77 mg/kg, individual rats, 1.77 mg/kg Oxymorphone HCl oral, 4 h): 0.508 ng/mL
concentration at 6 h ([2]; male, Sprague Dawley, rat, plasma, 1.77 mg/kg, individual rats, 1.77 mg/kg Oxymorphone HCl oral, 6 h): 1.8 ng/mL
concentration at 0.25 h ([2]; male, Sprague Dawley, rat, plasma, 3.54 mg/kg, Mean, 3.54 mg/kg Oxymorphone HCl oral, 0.25 h): 3.32 ng/mL
concentration at 0.5 h ([2]; male, Sprague Dawley, rat, plasma, 3.54 mg/kg, Mean, 3.54 mg/kg Oxymorphone HCl oral, 0.5 h): 3.09 ng/mL
concentration at 1 h ([2]; male, Sprague Dawley, rat, plasma, 3.54 mg/kg, Mean, 3.54 mg/kg Oxymorphone HCl oral, 1 h): 2.16 ng/mL
concentration at 2 h ([2]; male, Sprague Dawley, rat, plasma, 3.54 mg/kg, Mean, 3.54 mg/kg Oxymorphone HCl oral, 2 h): 1.78 ng/mL
concentration at 3 h ([2]; male, Sprague Dawley, rat, plasma, 3.54 mg/kg, Mean, 3.54 mg/kg Oxymorphone HCl oral, 3 h): 1.16 ng/mL
concentration at 4 h ([2]; male, Sprague Dawley, rat, plasma, 3.54 mg/kg, Mean, 3.54 mg/kg Oxymorphone HCl oral, 4 h): 0.499 ng/mL
concentration at 6 h ([2]; male, Sprague Dawley, rat, plasma, 3.54 mg/kg, Mean, 3.54 mg/kg Oxymorphone HCl oral, 6 h): 0.674 ng/mL
concentration at 2 h ([2]; male, Sprague Dawley, rat, plasma, 3.54 mg/kg, individual rats, 3.54 mg/kg Oxymorphone HCl oral, 2 h): 1.27 ng/mL
concentration at 4 h ([2]; male, Sprague Dawley, rat, plasma, 3.54 mg/kg, individual rats, 3.54 mg/kg Oxymorphone HCl oral, 4 h): 0.335 ng/mL
concentration at 6 h ([2]; male, Sprague Dawley, rat, plasma, 3.54 mg/kg, individual rats, 3.54 mg/kg Oxymorphone HCl oral, 6 h): 0.453 ng/mL
Cmax ([2]; male, Sprague Dawley, rat, plasma, po, 1.77 mg/kg, Cmax of plasma oxymorphone, Mean, 1.77 mg/kg Oxymorphone HCl oral): 1.23 ng/mL
Tmax ([2]; male, Sprague Dawley, rat, plasma, po, 1.77 mg/kg, Tmax of plasma oxymorphone, Mean, 1.77 mg/kg Oxymorphone HCl oral): 1.42 h

CN1CC[C@]23c4c5ccc(O)c4O[C@H]2C(OC(=O)[C@@H](O)c2ccccc2)=CC[C@@]3(O)[C@H]1C5.Cl [Oxymorphone Mandelate]
Solubility of test article in dosing formulation [3]: (not completely soluble)

CCCCCCCC/C=C\CCCCCCCC(=O)OC1=CC[C@@]2(O)[C@H]3Cc4ccc(O)c5c4[C@@]2(CCN3C)[C@H]1O5 [Oxymorphone Oleate, trifluoroacetic acid salt]
Plasma oxymorphone, individual rats ([2]; 7.12 mg/kg oral, Ex No. B3, rat, 0.25 h, trifluoroacetic acid salt): BQL (BQL: <0.200 ng/mL)
Plasma oxymorphone, individual rats ([2]; 7.12 mg/kg oral, Ex No. B3, rat, 0.5 h, trifluoroacetic acid salt): BQL (BQL: <0.200 ng/mL)
Plasma oxymorphone, individual rats ([2]; 7.12 mg/kg oral, Ex No. B3, rat, 2 h, trifluoroacetic acid salt): BQL (BQL: <0.200 ng/mL)

From patent US10695342B2, “Methods and compositions for preventing opioid abuse” (Albany Molecular Research, Inc., priority 2015, dated 2020)
